We go through 15 molecules from paper PMC2721690 (2009).

Holding throughout (assay): ITC
In test [1] the test system is GR (xpt-pbuX guanine riboswitch) (RNA, riboswitch) GGACAUAUAAUCGCGUGGAUAUGGCACGCAAGUUUCUACCGGGCACCGUAAAUGUCCGACUAUGUCC
The settings on record: 100 mM KCl, 10 mM MgCl2.

Test [2] relates to GRA (GR C74U) (RNA, riboswitch) GGACAUAUAAUCGCGUGGAUAUGGCACGCAAGUUUCUACCGGGCACCGUAAAUGUCCGAUUAUGUCC
Conditions: 100 mM KCl, 10 mM MgCl2; for KD: apparent.

Test [3] concerns GR(A21G/U75C) (RNA, riboswitch) GGACAUGUAAUCGCGUGGAUAUGGCACGCAAGUUUCUACCGGGCACCGUAAAUGUCCGACCAUGUCC
The settings on record: 100 mM KCl, 10 mM MgCl2; 50 mM K-HEPES, pH 7.5, 30 °C; apparent.

The subject of test [4] is GRA(A21U/U75A) (RNA, riboswitch) GGACAUUUAAUCGCGUGGAUAUGGCACGCAAGUUUCUACCGGGCACCGUAAAUGUCCGAUAAUGUCC
Conditions: 100 mM KCl, 10 mM MgCl2; 50 mM K-HEPES, pH 7.5, 30 °C; apparent.

The test system of test [5] is GRA(A21G/U75C) (RNA, riboswitch) GGACAUGUAAUCGCGUGGAUAUGGCACGCAAGUUUCUACCGGGCACCGUAAAUGUCCGAUCAUGUCC
Conditions: 100 mM KCl, 10 mM MgCl2; 50 mM K-HEPES, pH 7.5, 30 °C; apparent.

The test system of test [6] is GR(A21U/U75A) (RNA, riboswitch) GGACAUUUAAUCGCGUGGAUAUGGCACGCAAGUUUCUACCGGGCACCGUAAAUGUCCGACAAUGUCC
Conditions: 100 mM KCl, 10 mM MgCl2; 50 mM K-HEPES, pH 7.5, 30 °C; apparent.

Setting [7] is: 50 mM K-HEPES, pH 7.5, 30 °C, apparent.
[8] abbreviates: data not shown, text says "GR or GRA".
The mark [9] stands for this setting: 50 mM K-HEPES, pH 7.5, 30 °C, no detectable binding.

With `CNc1nc2[nH]cnc2c(=O)[nH]1`, in test [1] (50 mM K-HEPES, pH 7.5, 30 °C, data not shown), the binding result is given as “no”.

On to `COc1nc(N)nc2[nH]cnc12`, for which the KD was found to be 23 ± 6 µM in test [1] (setting [7]) and 20 ± 6 µM in test [2] (50 mM K-HEPES, pH 7.5, 30 °C).

As to `CSc1nc(N)nc2[nH]cnc12`, in test [1] (setting [8]), the binding result is “no”.

For the molecule `Nc1nc(=S)c2[nH]cnc2[nH]1`, the KD in test [1] (setting [7]) was 0.073 µM.

As for `Nc1nc(Br)c2[nH]cnc2n1`, the KD in test [1] (setting [7]) was 2.1 ± 0.6 µM; in test [2] (50 mM K-HEPES, pH 7.5, 30 °C), 2.7 ± 1.2 µM.

For `Nc1nc(Cl)c2[nH]cnc2n1`, the KD stood at 0.89 ± 0.06 µM in test [1] (setting [7]); 0.72 ± 0.04 µM in test [2] (50 mM K-HEPES, pH 7.5, 30 °C); 24 ± 6.0 µM in test [3].

Consider `Nc1nc(F)nc2[nH]cnc12`, for which the KD in test [2] (50 mM K-HEPES, pH 7.5, 30 °C) was 4.0 ± 1.1 µM.

Consider `Nc1nc(N)c2[nH]cnc2n1`, for which the KD was 4.1 ± 0.6 µM in test [1] (setting [7]) and 13 ± 1.1 µM in test [3].

Take `Nc1nc(OCc2ccccc2)c2[nH]cnc2n1`: the binding result in test [1] (setting [8]) is recorded as “no”.

With `Nc1nc2[nH]cnc2c(=O)[nH]1`, the binding entry in test [2] (setting [9]) was “no”.

Take `Nc1ncc2[nH]cnc2n1`: the KD in test [1] (setting [7]) came to 4.4 ± 1.2 µM.

As to `Nc1ncnc2[nH]cnc12`, the binding entry in test [1] (setting [9]) is given as “no”. Also, the KD in test [2] (50 mM K-HEPES, pH 7.5, 30 °C) was found to be 0.47 ± 0.04 µM; in test [4], 2.1 ± 0.19 µM; in test [5] it was 6.0 ± 1.1 µM.

Consider `O=c1[nH]c(=O)c2[nH]cnc2[nH]1`, for which the binding result in test [2] (setting [9]) is on record as “no”.

Consider `O=c1[nH]cnc2nc[nH]c12`, for which the binding result is “yes” in test [1] (pH 7.5 to 6.0, no change, apparent) and “no” in test [2] (setting [9]). Further, the figures for the KD in test [6] and in test [3] were 3.3 ± 0.32 µM and 9.5 ± 0.22 µM, respectively.

`c1coc(CNc2ncnc3[nH]cnc23)c1`: in test [2] (setting [8]), the binding result is recorded as “no”.
